How the values were obtained:
[1] = Metabolic stability assay with pooled mouse liver microsomes; format: in vitro ADME; details: 5 μM compound, 15 min, 0.5 mg/ml pooled mouse liver microsomes, LC/MS
Procedure: Pooled liver microsomes isolated from male CD-1 mice were purchased from BD Biosciences (San Jose, CA, USA). Metabolic stability was calculated by measuring the percentage of 5 μM of each test compound remaining after 15 min incubation with 0.5 mg/ml liver microsomes at 37 °C. Compounds were detected by LC/MS using a Xevo quadrupole time-of-flight mass spectrometer and an ACQUITY ultra-performance LC (UPLC) system (Waters Inc., Milford, MA, USA) to determine relative peak areas of each parent compound.

CT-L proteasome subunit = assay: CT-L proteasome activity in whole cell lysates of human myeloma cell lines (Suc-Leu-Leu-Val-Tyr-AMC); format: biochemical
Procedure: Cells were harvested by centrifugation at 1200 r.p.m. at room temperature. Cell pellets were washed with PBS and lysed with assay lysis buffer (50 mM HEPES (2-[4-(2-hydroxyethyl) piperazin-1-yl]ethanesulfonic acid)), pH 7.5; 150 mM NaCl; 1% Triton X-100; 2 mM ATP). Cell lysates were incubated on ice for 30 min, mixed by vortex every 5 min, and centrifuged at 12 000 × g for 10 min. Supernatants were transferred to a 96-well plate in triplicate. For each assay, 10 μg of total protein were incubated for 1 h at 37 °C with increasing concentrations (0.001–10 μM) of test compound or vehicle control diluted in assay buffer (50 mM Tris-HCl (tris(hydroxymethyl)aminomethane-HCl), pH 7.5; 150 mM NaCl). After incubation, a specific fluorogenic proteasome substrate was added to each assay reaction (40 μM in a total volume of 100 μl). […] The excitation wavelength was 360 nm and the fluorescence emission of free AMC released during the enzymatic reaction was detected at 460 nm on a SpectraMax M5 fluorescent spectrophotometric plate reader (Molecular Devices, Sunnyvale, CA, USA). AMC release rate was measured at 37 °C in a kinetic mode, recording every 5 min for 30 min.

[2] = tested on: 10 human myeloma cell lines; assay: MTS cell growth and viability assay; format: cell-based; details: 72 h
Procedure: (§1) Human multiple myeloma cell lines 8226, H929, JJN3, KMH11, KMS11, KMS18, LP1, MM.1 S, OPM2, and U266 were grown in Iscove's modified Dulbecco's medium (IMDM). Cell lines were authenticated with short tandem repeat method in September 2011. In addition, cell lines were continually monitored by morphological inspection. Primary mononuclear cells were isolated from peripheral blood or bone marrow samples from multiple myeloma patients at the Princess Margaret Cancer Centre (Toronto, ON, Canada) by Ficoll density gradient centrifugation and cultured in IMDM. All cell culture media were obtained from the Ontario Cancer Institute Tissue Culture Media Facility (Toronto, ON, Canada) and were supplemented with 10% fetal calf serum, 100 μg/ml penicillin, and 100 μg/ml streptomycin (Hyclone, Logan, UT, USA). […]
(§2) Cellular viability was primarily assessed by MTS assay according to the manufacturer's instructions (Promega, Madison, WI, USA). […] Cell viability was independently confirmed by reading the optical density at 490 nm and by exclusion of trypan blue stain (Invitrogen, Burlington, ON, Canada). Viability of primary mononuclear cells was determined by Annexin V–fluorescein isothiocyanate and propidium iodide co-staining (Biovision Research Products, Mountain View, CA, USA) using flow cytometry according to the manufacturer's instructions after 48 h of treatment with inhibitors or vehicle control.

[3] = tested on: primary CD138+ myeloma cells; assay: Annexin V flow cytometry viability of primary bone marrow mononuclear cells, myeloma fraction; format: cell-based, human
Procedure: as §1, §2

NOD/SCID mice = assay: Dose tolerance studies / MTD in mice; details: 30 mg/kg daily by oral gavage, up to 8 days, NOD/SCID mice
Procedure: NOD/SCID mice were administered FV-162 (30 mg/kg daily, 7 days/week) in a 5% DMSO, 20% Cremophor vehicle by oral gavage or ONX-0912 (30 mg/kg daily, 7 days/week) in a 5% DMSO, 20% Cremophor vehicle by oral gavage for a week. Mice were monitored for changes in body weight, behavior, and physical appearance.

[4] = tested on: MM.1S human myeloma cells; assay: Subcutaneous MM.1S myeloma xenograft model; format: in vivo, NOD/SCID mice; details: for tumor burden compared with vehicle control: P<0.01 by day 24, P<0.001 after 27 days
Procedure: Human MM.1S myeloma cells (5 × 10^6) were injected subcutaneously into 6–8-week-old female NOD/SCID mice (10 mice per group). When tumors were palpable, mice were administered vehicle by oral gavage (5% DMSO, 20% Cremophor; once daily × 3 weeks), carfilzomib intravenously (5 mg/kg, once daily on days 1 and 2 of each week × 3 weeks), ONX-0912 by oral gavage (30 mg/kg, once daily on days 1 and 2 of each week × 3 weeks), or FV-162 by oral gavage (30 mg/kg or 100 mg/kg, once daily × 3 weeks). Over time, tumor volume (tumor length × width^2 × 0.5236) was measured with calipers (Control Company, Friendswood, TX, USA), and mouse body weight was monitored.

C-L subunit activity = assay: C-L proteasome activity in RBCs of treated mice; format: in vivo, mouse; details: FV-162 30 mg/ml as printed in Figure 5e legend
T-L subunit activity = assay: T-L proteasome activity in RBCs of treated mice; format: in vivo, mouse; details: FV-162 30 mg/ml as printed in Figure 5e legend
patients = details: cited from earlier work

Cc1ncc(C(=O)N[C@@H](COC(F)F)C(=O)N[C@@H](COC(F)F)C(=O)N[C@@H](Cc2ccccc2)C(=O)[C@@]2(C)CO2)s1 [FV-162]
percentage of parent compound remaining [1]: Over 80%
potency in CT-L inhibition relative to ONX-0912 (CT-L proteasome subunit; in 6 of the 10 cell lines): over five times more potent than ONX-0912
IC50 (CT-L proteasome subunit; total cell lysates, all 10 human myeloma cell lines tested): < 60 nM
cell growth and viability (MTS) ([2]; all 10 human myeloma cell lines): decreased cell growth and viability
potency in MTS assay relative to ONX-0912 ([2]; in 5 of the 10 cell lines): over two times more potent than ONX-0912
primary myeloma cells killed ([3]; concentrations ⩽0.1 μM, 48 h, n=8 patients): At least 80%
toxicity, behavior and body weight on daily dosing (NOD/SCID mice): no evidence of toxicity, behavioral change, or loss of body weight
tumor burden compared with vehicle control ([4]; 30 mg/kg daily by oral gavage): significantly reduced tumor burden
tumor burden compared with vehicle control ([4]; 100 mg/kg daily by oral gavage): significantly reduced tumor burden
tumor growth reduction compared with ONX-0912 (30 mg/kg) ([4]; 100 mg/kg daily, by 27 days after inoculation, P<0.05): greater reduction in tumor growth
inhibition of C-L subunit activity in murine RBCs (C-L subunit activity): did not inhibit
inhibition of T-L subunit activity in murine RBCs (T-L subunit activity): did not inhibit

COC[C@H](NC(=O)c1cnc(C)s1)C(=O)N[C@@H](COC)C(=O)N[C@@H](Cc1ccccc1)C(=O)[C@@]1(C)CO1 [ONX-0912, reference compound]
percentage of parent compound remaining [1]: 56%
induction of death in primary myeloma cells ([3]; similar concentrations as FV-162, 48 h): less effective at inducing death in primary myeloma cells
tumor burden compared with vehicle control ([4]; 30 mg/kg twice weekly by oral gavage): significantly reduced tumor burden
MTD (not reached at cumulative doses up to) (patients; administered twice daily): > 190 mg/day
MTD (patients; once-daily oral, patients with advanced refractory or recurrent solid tumors): 150 mg/day
